# Measured values: US20240343733A1, “COMPOUNDS FOR TARGETING DEGRADATION OF IRAK4 PROTEINS” (BIOGEN MA INC., priority 2021, published 2024)
# Like-named read-outs stand apart in the source and are kept apart here.
# Tests used:
# IRAK4 = target: T1, IRAK4 (Homo sapiens, UniProt Q9NWZ3); assay: IRAK4 Degradation Assay, HiBiT Method; assay type: cell-based; conditions: 293T cells expressing HiBiT-tagged IRAK4, 6 hours
# T1 construct: 293Tcells expressing HiBiT-tagged IRAK4 were then added into 384-well plates
# T1 sequence (Q9NWZ3 1-460): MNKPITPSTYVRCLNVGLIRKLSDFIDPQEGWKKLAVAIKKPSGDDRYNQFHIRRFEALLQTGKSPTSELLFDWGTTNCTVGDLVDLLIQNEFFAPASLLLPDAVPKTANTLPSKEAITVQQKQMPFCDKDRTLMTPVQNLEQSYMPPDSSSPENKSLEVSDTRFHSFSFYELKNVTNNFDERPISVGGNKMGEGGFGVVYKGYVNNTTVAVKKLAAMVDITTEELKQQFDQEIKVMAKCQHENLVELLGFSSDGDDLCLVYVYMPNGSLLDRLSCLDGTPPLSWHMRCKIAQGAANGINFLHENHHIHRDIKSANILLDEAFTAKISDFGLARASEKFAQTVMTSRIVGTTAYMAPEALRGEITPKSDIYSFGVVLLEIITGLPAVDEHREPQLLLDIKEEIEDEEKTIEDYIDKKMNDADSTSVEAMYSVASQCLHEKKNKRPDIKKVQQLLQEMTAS
# Procedure, shortened: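 293T cells with HiBiT knocked in at the C-terminus of endogenous IRAK4, 10,000 per well, treated 6 h at 37 °C with an 11-point half-log series ([…]), in duplicate. Remaining IRAK4 read by Nano-Glo HiBiT lytic luminescence against DMSO-only and media-only controls.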
# [1] = Pharmacokinetics (PK) in Male Beagle Dogs; assay type: in vivo; conditions: dog, plasma; for Vd: read-out: Vdss
# Method: Assay 3. Pharmacokinetics (PK) in Male Beagle Dogs
# The pharmacokinetic (PK) profile in plasma of two compounds of the present invention was determined in male beagle dogs following single dose IV (5 mg/kg) and PO (10 mg/kg) administration. This study was performed under non-GLP conditions, and unless otherwise stated, all analytical reagents were standard laboratory reagent grade.
# Male beagle dogs were housed individually and maintained in a controlled environment. Pedigree® standard dog chow (Pedigree India Private Ltd, Telangana, India) was provided once daily. Drinking water was available ad libitum. Environmental controls for the animal room were set to maintain a temperature range of 22-25° C., relative humidity range of 40-70%, and a 12-hour light/12-hour dark cycle. Normal healthy animals weighing 10±1 kg, certified by the attending veterinarian, were selected and acclimatized for a minimum of three days prior to initiation of study. Dogs were identified by chip number inserted at the neck region. The study protocol was reviewed and approved by the Institutional Animal Ethics Committee (IAEC).
# 2-[4-[[4-[1-(2,6-dioxo-3-piperidyl)-3-methyl-2-oxo-benzimidazol-5-yl]-1-piperidyl]methyl]cyclohexyl]-7-isopropoxy-N-pyrazolo[1,5-a]pyrimidin-3-yl-imidazo[1,2-a]pyridine-6-carboxamide, as described in Example 48 (“Compound 48”), and 2-((1R,4S)-4-((4-(1-(2,6-dioxopiperidin-3-yl)-3-methyl-2-oxo-2,3-dihydro-1H-benzo[d]imidazol-5-yl)piperidin-1-yl)methyl)cyclohexyl)-N-(1-((1S,2R)-2-fluorocyclopropyl)-2-oxo-1,2-dihydropyridin-3-yl)-7-isopropoxyimidazo[1,2-a]pyridine-6-carboxamide, as described in Example 169 (“Compound 169”), were each formulated by dissolving the compound in polyethylene glycol (PEG400) (10%) with stirring, followed by the slow addition of 11.11% 2-Hydroxypropyl-beta-cyclodextrin (HPβCD) (90%) in water. Vehicle dose was PEG400 (10%) and 11.11% HP-β-CD (90%) in water. Formulations and vehicle were freshly prepared on the day of dosing and stored at room temperature until used.
# All animals were weighed prior to drug administration. The animals were divided into intravenous (IV) group and per os (PO) group for each compound tested, with 3 animals in each group. The vehicle dosing group also included IV and PO groups, making a total of 6 groups of 3 animals each, for 18 animals total. The animals were restrained physically in sternal recumbently, on an examination table. The IV dose was administered by intravenous bolus injection into the cephalic vein and the PO dose was administered via gastric tube. The dosing volume was 1 mL/kg for IV groups and 2 mL/kg for PO groups. The dosing concentration was 5 mg/mL for both IV and PO groups respectively. The animals were fasted overnight and food was provided 4 hours post dose. […] Apart from this, animals were observed twice daily for any clinical signs, if any, and noted accordingly.
# From the vehicle treatment group, whole blood was collected for peripheral blood mononuclear cells (PBMC) isolation at Pre-dose, and at 2, 8, 24, 48, 72 and 96 hour timepoints. For both tested compounds IV and PO dosing groups, whole blood was collected for plasma isolation at Pre-dose, and 0.033, 0.083, 0.167, 0.33, 1, 2, 4, 6, 8, 24, 48, 72 and 96 hour timepoints. The anti-coagulant solution used was 6% (v/v) Sodium citrate (200 mM, pH 4.79) (pre-chilled tubes). The whole blood from both IV and PO compound treatment dosing groups collected at Pre-dose, 2, 8, 24, 48, 72 and 96 hours were subjected to PBMC isolation.
# For sample preparation, approximately 1-2 mL of whole blood was drawn from the peripheral vein and collected in labeled tubes containing lithium heparin, then stored on ice. The blood samples were centrifuged within 15 minutes to separate plasma at 1540 g at 4° C. for 10 minutes. The plasma was separated and transferred to pre-labeled microcentrifuge tubes and immediately frozen at −80±10° C. until bioanalysis. […]
DC50 (IRAK4),"AUC(0-t) ([1]; 5 mg/kg IV, mean)","C0 ([1]; 5 mg/kg IV, mean)","clearance ([1]; 5 mg/kg IV, mean)","half-life ([1]; 5 mg/kg IV, mean)","Vd ([1]; 5 mg/kg IV, mean)","AUC(0-t) ([1]; 10 mg/kg PO, mean)","Cmax ([1]; 10 mg/kg PO, mean)","bioavailability ([1]; 10 mg/kg PO, mean)","AUC(0-t) ([1]; 5 mg/kg IV, mean (Table 5))","C0 ([1]; 5 mg/kg IV, mean (Table 5))","clearance ([1]; 5 mg/kg IV, mean (Table 5))","half-life ([1]; 5 mg/kg IV, mean (Table 5))","Vd ([1]; 5 mg/kg IV, mean (Table 5))","AUC(0-t) ([1]; 10 mg/kg PO, mean (Table 6))","Cmax ([1]; 10 mg/kg PO, mean (Table 6))","bioavailability ([1]; 10 mg/kg PO, mean (Table 6))",SMILES
< 10 nM,1720 ng·h/mL,4180 ng/mL,46.3 mL/min/kg,34.5 h,58.5 L/kg,242 ng·h/mL,33.9 ng/mL,7.02%,,,,,,,,,"CC(C)Oc1cc2nc([C@H]3CC[C@H](CN4CCC(c5ccc6c(c5)n(C)c(=O)n6C5CCC(=O)NC5=O)CC4)CC3)cn2cc1C(=O)Nc1cnn2cccnc12 (stereo partly drawn) [Compound 48, 2-[4-[[4-[1-(2,6-dioxo-3-piperidyl)-3-methyl-2-oxo-benzimidazol-5-yl]-1-piperidyl]methyl]cyclohexyl]-7-isopropoxy-N-pyrazolo[1,5-a]pyrimidin-3-yl-imidazo[1,2-a]pyridine-6-carboxamide]"
< 10 nM,,,,,,,,,2210 ng·h/mL,3160 ng/mL,35 mL/min/kg,42.5 h,58 L/kg,472 ng·h/mL,32.2 ng/mL,10.7%,"CC(C)Oc1cc2nc([C@H]3CC[C@H](CN4CCC(c5ccc6c(c5)n(C)c(=O)n6C5CCC(=O)NC5=O)CC4)CC3)cn2cc1C(=O)Nc1cccn([C@H]2C[C@H]2F)c1=O (stereo partly drawn) [Compound 169, 2-((1R,4S)-4-((4-(1-(2,6-dioxopiperidin-3-yl)-3-methyl-2-oxo-2,3-dihydro-1H-benzo[d]imidazol-5-yl)piperidin-1-yl)methyl)cyclohexyl)-N-(1-((1S,2R)-2-fluorocyclopropyl)-2-oxo-1,2-dihydropyridin-3-yl)-7-isopropoxyimidazo[1,2-a]pyridine-6-carboxamide]"
